This note sets out measurements from US20260070945A1, “MACROCYCLIC IMMUNOMODULATORS” (Bristol-Myers Squibb Company, priority 2022, published 2026).

*1 amine or outer side, *2 acyl side, *3 side chain or, on linkers, in order; H or OH if unused. Where a SMILES comes first, the peptide text is derived from it. Bridges are numbered along the chain shown (N, C = ends). [ ]: non-standard residue; d: D form. The star is where a group is joined. Phe(4-COOH) = N[C@@H](Cc1ccc(C(=O)O)cc1)C(=O)O; Bip = N[C@@H](Cc1ccc(-c2ccccc2)cc1)C(=O)O; Phe(3-Me) = Cc1cccc(C[C@H](N)C(=O)O)c1; γGlu = O=C(O)[C@H](CCC(=O)[*:2])N[*:1]; βAsp = O=C(O)[C@H](CC(=O)[*:2])N[*:1]; Cha = N[C@@H](CC1CCCCC1)C(=O)O; Carboxymethyl = O=C(O)C*; NMeA = CN[C@@H](C)C(=O)O; Orn = NCCC[C@H](N)C(=O)O; Aun = NCCCCCCCCCCC(=O)O; Dab = NCC[C@H](N)C(=O)O; Dap = NC[C@H](N)C(=O)O; AEEA = NCCOCCOCC(=O)O

T1 sequence (Q15116 25-288): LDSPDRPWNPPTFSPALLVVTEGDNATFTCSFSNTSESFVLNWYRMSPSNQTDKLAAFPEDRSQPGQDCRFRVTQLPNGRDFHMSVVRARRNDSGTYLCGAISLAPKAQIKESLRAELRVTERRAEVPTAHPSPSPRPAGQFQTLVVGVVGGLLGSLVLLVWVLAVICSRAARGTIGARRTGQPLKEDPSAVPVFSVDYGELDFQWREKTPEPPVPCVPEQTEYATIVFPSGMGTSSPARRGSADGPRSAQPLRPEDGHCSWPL

The test concerns the target T1, PD-1/PD-L1 interaction (PE-labeled human PD-L1-Ig binding to Jurkat cell line over-expressing human PD-1) (Homo sapiens, UniProt Q15116).
T1 construct: expressed in transfected cells; host or cells: Jurkat
The test is described as follows: Jurkat-PD-1 Cell Binding High-Content Screening Assay (CBA). The settings on record: Jurkat-hPD-1 cells, PE-labeled PD-L1-Ig 20 nM final; read-out: Jurkat HPD1 PDL1 IC50. Here is the method: Example 2: Jurkat-PD-1 Cell Binding High-Content Screening Assay (CBA)
Phycoerythrin (PE) was covalently linked to the Ig epitope tag of human PD-L1-Ig and fluorescently-labeled PD-L1-Ig was used for binding studies with a Jurkat cell line over-expressing human PD-1 (Jurkat-PD-1). Briefly, 8×10^3 Jurkat-hPD-1 cells were seeded into 384 well plates in 20 μl of DMEM supplemented with 10% fetal calf serum. 100 nl of compound was added to cells followed by incubation at 37° C. for 2 hours. Then, 5 μl of PE-labeled PD-L1-Ig (20 nM final), diluted in DMEM supplemented with 10% fetal calf serum. After 1 hour incubation, cells were fixed with […] in dPBS containing 10 μg/ml Hoechst 33342 and then washed 3× in 100 μl dPBS. Data was collected and processed using a Cell Insight NXT High Content Imager and associated software.
In the case of `Cc1cccc(C[C@@H]2NC(=O)[C@H](CC(=O)O)NC(=O)[C@H](Cc3ccc(C(=O)O)cc3)NC(=O)[C@H](Cc3ccc(OCC(=O)O)cc3)NC(=O)CSC[C@@H](C(=O)NCC(=O)N[C@@H](CCC(=O)O)C(=O)NCCOCCOCC(=O)N[C@@H](CCC(=O)NCCOCCOCC(=O)NCCCCCCCCCCC(=O)O)C(=O)O)NC(=O)[C@H](CO)NC(=O)[C@H](C(C)C)NC(=O)[C@H](CC(C)C)NC(=O)[C@H](CC(N)=O)NC(=O)[C@@H](CC(C)C)NC(=O)[C@H](C)N(C)C(=O)[C@H](C(C)C)NC(=O)[C@H](Cc3ccc(-c4ccccc4)cc3)NC(=O)[C@H](CC(C)C)NC2=O)c1` [Example 1018] ({CH2CO}-Y(Carboxymethyl)[Phe(4-COOH)]D[Phe(3-Me)]L[Bip]V[NMeA][dL]NLVSCGE[AEEA][γGlu][AEEA][Aun]-OH; thioether N-14), the IC50 turned out to be 67.7 nM.
Take `Cc1cccc(C[C@@H]2NC(=O)[C@H](CC(=O)O)NC(=O)[C@H](Cc3ccc(C(=O)O)cc3)NC(=O)[C@H](Cc3ccc(OCC(=O)O)cc3)NC(=O)CSC[C@@H](C(=O)NCC(=O)N[C@@H](CC(=O)O)C(=O)NCCOCCOCC(=O)N[C@@H](CCC(=O)NCCOCCOCC(=O)NCCCCCCCCCCC(=O)O)C(=O)O)NC(=O)[C@H](CO)NC(=O)[C@H](C(C)C)NC(=O)[C@H](CC(C)C)NC(=O)[C@H](CC(N)=O)NC(=O)[C@@H](CC(C)C)NC(=O)[C@H](C)N(C)C(=O)[C@H](C(C)C)NC(=O)[C@H](Cc3ccc(-c4ccccc4)cc3)NC(=O)[C@H](CC(C)C)NC2=O)c1` [Example 1019] ({CH2CO}-Y(Carboxymethyl)[Phe(4-COOH)]D[Phe(3-Me)]L[Bip]V[NMeA][dL]NLVSCGD[AEEA][γGlu][AEEA][Aun]-OH; thioether N-14): the IC50 was 58.5 nM.
The same measure for `Cc1cccc(C[C@@H]2NC(=O)[C@H](CC(=O)O)NC(=O)[C@H](Cc3ccc(C(=O)O)cc3)NC(=O)[C@H](Cc3ccc(OCC(=O)O)cc3)NC(=O)CSC[C@@H](C(=O)NCC(=O)N[C@@H](CCC(=O)O)C(=O)NCCOCCOCC(=O)N[C@@H](CC(=O)NCCOCCOCC(=O)NCCCCCCCCCCC(=O)O)C(=O)O)NC(=O)[C@H](CO)NC(=O)[C@H](C(C)C)NC(=O)[C@H](CC(C)C)NC(=O)[C@H](CC(N)=O)NC(=O)[C@@H](CC(C)C)NC(=O)[C@H](C)N(C)C(=O)[C@H](C(C)C)NC(=O)[C@H](Cc3ccc(-c4ccccc4)cc3)NC(=O)[C@H](CC(C)C)NC2=O)c1` [Example 1021] ({CH2CO}-Y(Carboxymethyl)[Phe(4-COOH)]D[Phe(3-Me)]L[Bip]V[NMeA][dL]NLVSCGE[AEEA][βAsp][AEEA][Aun]-OH; thioether N-14): 76.2 nM; for `Cc1cccc(C[C@@H]2NC(=O)[C@H](CC(=O)O)NC(=O)[C@H](Cc3ccc(C(=O)O)cc3)NC(=O)[C@H](Cc3ccc(OCC(=O)O)cc3)NC(=O)CSC[C@@H](C(=O)NCC(=O)N[C@@H](CC(=O)O)C(=O)NCCOCCOCC(=O)N[C@@H](CC(=O)NCCOCCOCC(=O)NCCCCCCCCCCC(=O)O)C(=O)O)NC(=O)[C@H](CO)NC(=O)[C@H](C(C)C)NC(=O)[C@H](CC(C)C)NC(=O)[C@H](CC(N)=O)NC(=O)[C@@H](CC(C)C)NC(=O)[C@H](C)N(C)C(=O)[C@H](C(C)C)NC(=O)[C@H](Cc3ccc(-c4ccccc4)cc3)NC(=O)[C@H](CC(C)C)NC2=O)c1` [Example 1022] ({CH2CO}-Y(Carboxymethyl)[Phe(4-COOH)]D[Phe(3-Me)]L[Bip]V[NMeA][dL]NLVSCGD[AEEA][βAsp][AEEA][Aun]-OH; thioether N-14): 76.6 nM.
The same measure for `Cc1cccc(C[C@@H]2NC(=O)[C@H](CC(=O)O)NC(=O)[C@H](Cc3ccc(C(=O)O)cc3)NC(=O)[C@H](Cc3ccc(OCC(=O)O)cc3)NC(=O)CSC[C@@H](C(=O)NCC(=O)N[C@@H](CC(=O)NCCOCCOCC(=O)N[C@@H](CCC(=O)O)C(=O)NCCOCCOCC(=O)NCCCCCCCCCCC(=O)O)C(=O)O)NC(=O)[C@H](CO)NC(=O)[C@H](C(C)C)NC(=O)[C@H](CC(C)C)NC(=O)[C@H](CC(N)=O)NC(=O)[C@@H](CC(C)C)NC(=O)[C@H](C)N(C)C(=O)[C@H](C(C)C)NC(=O)[C@H](Cc3ccc(-c4ccccc4)cc3)NC(=O)[C@H](CC(C)C)NC2=O)c1` [Example 1023] ({CH2CO}-Y(Carboxymethyl)[Phe(4-COOH)]D[Phe(3-Me)]L[Bip]V[NMeA][dL]NLVSCG[βAsp][AEEA]E[AEEA][Aun]-OH; thioether N-14): 119 nM; for `Cc1cccc(C[C@@H]2NC(=O)[C@H](CC(=O)O)NC(=O)[C@H](Cc3ccc(C(=O)O)cc3)NC(=O)[C@H](Cc3ccc(OCC(=O)O)cc3)NC(=O)CSC[C@@H](C(=O)NCC(=O)N[C@@H](CC(=O)NCCOCCOCC(=O)N[C@@H](CC(=O)O)C(=O)NCCOCCOCC(=O)NCCCCCCCCCCC(=O)O)C(=O)O)NC(=O)[C@H](CO)NC(=O)[C@H](C(C)C)NC(=O)[C@H](CC(C)C)NC(=O)[C@H](CC(N)=O)NC(=O)[C@@H](CC(C)C)NC(=O)[C@H](C)N(C)C(=O)[C@H](C(C)C)NC(=O)[C@H](Cc3ccc(-c4ccccc4)cc3)NC(=O)[C@H](CC(C)C)NC2=O)c1` [Example 1024] ({CH2CO}-Y(Carboxymethyl)[Phe(4-COOH)]D[Phe(3-Me)]L[Bip]V[NMeA][dL]NLVSCG[βAsp][AEEA]D[AEEA][Aun]-OH; thioether N-14): 87.5 nM; for `Cc1cccc(C[C@@H]2NC(=O)[C@H](CC(=O)O)NC(=O)[C@H](Cc3ccc(C(=O)O)cc3)NC(=O)[C@H](Cc3ccc(OCC(=O)O)cc3)NC(=O)CSC[C@@H](C(=O)NCC(=O)N[C@@H](CC(=O)NCCOCCOCC(=O)N[C@@H](CC(=O)NCCCCCCCCCCC(=O)O)C(=O)O)C(=O)O)NC(=O)[C@H](CO)NC(=O)[C@H](C(C)C)NC(=O)[C@H](CC(C)C)NC(=O)[C@H](CC(N)=O)NC(=O)[C@@H](CC(C)C)NC(=O)[C@H](C)N(C)C(=O)[C@H](C(C)C)NC(=O)[C@H](Cc3ccc(-c4ccccc4)cc3)NC(=O)[C@H](CC(C)C)NC2=O)c1` [Example 1025] ({CH2CO}-Y(Carboxymethyl)[Phe(4-COOH)]D[Phe(3-Me)]L[Bip]V[NMeA][dL]NLVSCG[βAsp][AEEA][βAsp][Aun]-OH; thioether N-14): 112 nM.
The result for `Cc1cccc(C[C@@H]2NC(=O)[C@H](CC(=O)O)NC(=O)[C@H](Cc3ccc(C(=O)O)cc3)NC(=O)[C@H](Cc3ccc(OCC(=O)O)cc3)NC(=O)CSC[C@@H](C(=O)NCCOCCOCC(=O)NCCCCCCCCCCC(=O)O)NC(=O)[C@H](CO)NC(=O)[C@H](C(C)C)NC(=O)[C@H](CC(C)C)NC(=O)[C@H](CC(N)=O)NC(=O)[C@@H](CC(C)C)NC(=O)[C@H](C)N(C)C(=O)[C@H](C(C)C)NC(=O)[C@H](Cc3ccc(-c4ccccc4)cc3)NC(=O)[C@H](CC(C)C)NC2=O)c1` [Example 1027] ({CH2CO}-Y(Carboxymethyl)[Phe(4-COOH)]D[Phe(3-Me)]L[Bip]V[NMeA][dL]NLVSC[AEEA][Aun]-OH; thioether N-14) reads 21.9 nM; that for `CC(C)C[C@@H]1NC(=O)[C@H](Cc2c[nH]c3ccccc23)NC(=O)[C@H](CC(=O)O)NC(=O)[C@H](Cc2ccc(C(=O)O)cc2)NC(=O)[C@H](Cc2ccc(OCC(=O)O)cc2)NC(=O)CSC[C@@H](C(=O)NCC(=O)N[C@@H](CN)C(=O)NCC(=O)NCCCCCCCCCCC(=O)O)NC(=O)[C@H](CO)NC(=O)[C@H](C(C)C)NC(=O)[C@H](CC2CCCCC2)NC(=O)[C@H](CCN)NC(=O)[C@@H](CC(C)C)NC(=O)[C@H](C)N(C)C(=O)[C@H](C(C)C)NC(=O)[C@H](Cc2ccc(-c3ccccc3)cc2)NC1=O` [Example 1028] ({CH2CO}-Y(Carboxymethyl)[Phe(4-COOH)]DWL[Bip]V[NMeA][dL][Dab][Cha]VSCG[Dap]G[Aun]-OH; thioether N-14), 14.7 nM.
Consider `CC(C)C[C@@H]1NC(=O)[C@H](Cc2c[nH]c3ccccc23)NC(=O)[C@H](CC(=O)O)NC(=O)[C@H](Cc2ccc(C(=O)O)cc2)NC(=O)[C@H](Cc2ccc(OCC(=O)O)cc2)NC(=O)CSC[C@@H](C(=O)NCC(=O)N[C@@H](CCN)C(=O)NCC(=O)NCCCCCCCCCCC(=O)O)NC(=O)[C@H](CO)NC(=O)[C@H](C(C)C)NC(=O)[C@H](CC2CCCCC2)NC(=O)[C@H](CCN)NC(=O)[C@@H](CC(C)C)NC(=O)[C@H](C)N(C)C(=O)[C@H](C(C)C)NC(=O)[C@H](Cc2ccc(-c3ccccc3)cc2)NC1=O` [Example 1029] ({CH2CO}-Y(Carboxymethyl)[Phe(4-COOH)]DWL[Bip]V[NMeA][dL][Dab][Cha]VSCG[Dab]G[Aun]-OH; thioether N-14), for which the IC50 turned out to be 9 nM.
In the case of `CC(C)C[C@@H]1NC(=O)[C@H](Cc2c[nH]c3ccccc23)NC(=O)[C@H](CC(=O)O)NC(=O)[C@H](Cc2ccc(C(=O)O)cc2)NC(=O)[C@H](Cc2ccc(OCC(=O)O)cc2)NC(=O)CSC[C@@H](C(=O)NCC(=O)N[C@@H](CCCN)C(=O)NCC(=O)NCCCCCCCCCCC(=O)O)NC(=O)[C@H](CO)NC(=O)[C@H](C(C)C)NC(=O)[C@H](CC2CCCCC2)NC(=O)[C@H](CCN)NC(=O)[C@@H](CC(C)C)NC(=O)[C@H](C)N(C)C(=O)[C@H](C(C)C)NC(=O)[C@H](Cc2ccc(-c3ccccc3)cc2)NC1=O` [Example 1030] ({CH2CO}-Y(Carboxymethyl)[Phe(4-COOH)]DWL[Bip]V[NMeA][dL][Dab][Cha]VSCG[Orn]G[Aun]-OH; thioether N-14), the IC50 was 10.6 nM.
